According to publication PMC11762957, “Rescue of Mutant CFTR Channel Activity by Investigational Co-Potentiator Therapy” (Biomedicines, 2025):

Legend:
Type in all cases: cell-based
p.Arg334Trp-CFTR = molecular target: T1, p.Arg334Trp-CFTR (Homo sapiens, UniProt P13569, R334W); assay: Micro-Ussing chamber measurements, polarized CFBE41o- monolayers expressing p.Arg334Trp-CFTR; conditions: after Fsk 0.128 μM
T1 construct: expressed in transfected cells
Method: CFBE41o^− cells expressing p.Arg334Trp-CFTR were seeded onto collagen IV-coated Snap-well filter inserts (#734-1646, Corning, New York, NJ, USA) to establish polarized monolayers. When the transepithelial electrical resistance of cells was ≥1000 Ω·cm^2, micro-Ussing chambers were mounted to measure transepithelial voltage (Vte) and transepithelial resistance (Rte), as noted before. Briefly, after the equilibration period, baseline values were recorded and compounds were added sequentially: Fsk (0.128 μM), test compound(s), and Inh-172 (30 μM). Recorded Vte and Rte were used to calculate the equivalent short-circuit current (Isceq) using Ohm’s law: Isc = Vte/Rte.
Next, we validated the data obtained by the HS-YFP assay by measuring short-circuit currents in the polarized monolayers of CFBE41o^− cells expressing p.Arg334Trp-CFTR to assess the alterations in the CFTR-mediated Cl^− current. Upon the activation of the cAMP-dependent CFTR-mediated Cl^− transport by Fsk, there was a small lumen-negative response, indicating the residual function of p.Arg334Trp-CFTR (Figure 3A–F).

p.Gly551Asp-CFTR = molecular target: T2, p.Gly551Asp-CFTR (Homo sapiens, UniProt P13569, G551D); assay: HS-YFP assay, CFBE41o- cells transiently transfected with p.Gly551Asp-CFTR; conditions: LSO-24 5 μM, LSO-150 3 μM, VX-770 1 μM, ABBV-3067 10 μM, Fsk 5 μM
T2 construct: expressed in transfected cells; host or cells: CFBE41o- cells stably expressing HS-YFP, transient transfection of pcDNA5-CFTR
Method: (§1) Site-directed mutagenesis was performed using KOD HOT start DNA polymerase (#71086-3, Sigma-Aldrich, St. Louis, MO, USA), according to manufacturer’s instructions, to insert variants under study (c.613C>T or p.Pro205Ser; c.1645A>C or p.Ser549Arg; c.1647T>G or p.Ser549Arg; c.1652G>A or p.Gly551Asp; c.2834C>T or p.Ser945Leu; and c.4046G>A or p.Gly1349Asp) into CFTR cDNA cloned in the pcDNA5 expression vector. After confirmation by Sanger sequencing, CFBE41o^− cells expressing HS-YFP seeded onto 96-well plates were transfected with 0.1 µg per well of the indicated plasmid. Lipofectamine 3000 (#L3000015, ThermoFischer Scientific, Waltham, MA, USA) was used as the transfection agent diluted in Opti-MEM reduced serum medium (#31985070, ThermoFischer Scientific, Waltham, MA, USA) according to manufacturer’s instructions.
(§2) CFTR activity was determined by the HS-YFP microfluorimetric assay (described in detail in previous studies) using CFBE41o^− cells expressing HS-YFP together with stably expressed p.Arg334Trp-CFTR or transiently transfected with CFTR cDNA (variants p.Pro205Ser, p.Ser549Arg, p.Gly551Asp, p.Ser945Leu, and p.Gly1349Asp) cloned into pcDNA5. […] Thereafter, cells were transferred to a microplate reader (Tecan Infinite 200 Pro) equipped with high-quality excitation (485 ± 20 nm) and emission (535 ± 25 nm) filters for YFP. Each reading consisted of a continuous 14 s fluorescence recording with 2 s before and 12 s after injection of 165 μL of an iodide-containing solution (PBS with Cl^− replaced by I^−; final I^− concentration: 100 mM). Data were normalized to the initial background-subtracted fluorescence. […]
(§3) As CFTR variants with similar defect(s) may respond differently to the same treatment(s), we assessed whether LSO-24 or its derivative LSO-150, alone or in combination(s), could rescue CFTR activity for other variants with gating/conductance defects. […] After 24 h, the cells were acutely stimulated with Fsk plus test compound(s), and the cell fluorescence was recorded before and after the addition of an I^−-containing solution. […]

p.Ser945Leu-CFTR = molecular target: T3, p.Ser945Leu-CFTR (Homo sapiens, UniProt P13569, S945L); assay: HS-YFP assay, CFBE41o- cells transiently transfected with p.Ser945Leu-CFTR; conditions: LSO-24 5 μM, LSO-150 3 μM, Fsk 5 μM
T3 construct: expressed in transfected cells; host or cells: CFBE41o- cells stably expressing HS-YFP, transient transfection of pcDNA5-CFTR
Method: as §1, with “Lipofectamine 3000 (#L3000015, ThermoFischer Scientific, Waltham, MA, USA) was used as the transfection agent diluted in Opti-MEM reduced serum medium (#31985070, ThermoFischer Scientific, Waltham, MA, USA) according to manufacturer’s instructions.” left out
as §2

p.Gly1349Asp-CFTR = molecular target: T4, p.Gly1349Asp-CFTR (Homo sapiens, UniProt P13569, G1349D); assay: HS-YFP assay, CFBE41o- cells transiently transfected with p.Gly1349Asp-CFTR; conditions: Fsk 5 μM
T4 construct: expressed in transfected cells; host or cells: CFBE41o- cells stably expressing HS-YFP, transient transfection of pcDNA5-CFTR
Method: as §1
CFTR activity was determined by the HS-YFP microfluorimetric assay (described in detail in previous studies) using CFBE41o^− cells expressing HS-YFP together with stably expressed p.Arg334Trp-CFTR or transiently transfected with CFTR cDNA (variants p.Pro205Ser, p.Ser549Arg, p.Gly551Asp, p.Ser945Leu, and p.Gly1349Asp) cloned into pcDNA5. Briefly, cells were washed with phosphate-buffered saline (PBS; in mM: 137 NaCl, 2.7 KCl, 8.1 Na2HPO4, 1.5 KH2PO4, 1 CaCl2, and 0.5 MgCl2) and then incubated for 30 min at 37 °C with 60 μL of PBS plus Fsk (5 μM) and test compound(s) to stimulate CFTR channels. DMSO (vehicle) and VX-770 (1 μM) were used as negative and positive controls, respectively. All conditions were performed in triplicate on each plate. Thereafter, cells were transferred to a microplate reader (Tecan Infinite 200 Pro) equipped with high-quality excitation (485 ± 20 nm) and emission (535 ± 25 nm) filters for YFP. Each reading consisted of a continuous 14 s fluorescence recording with 2 s before and 12 s after injection of 165 μL of an iodide-containing solution (PBS with Cl^− replaced by I^−; final I^− concentration: 100 mM). Data were normalized to the initial background-subtracted fluorescence. To determine the I^− influx rate, the final 11 s of the data for each well were fitted with an exponential function to extrapolate the initial slope (dF/dt).
as §3

T1 sequence (P13569 whole entry R334W): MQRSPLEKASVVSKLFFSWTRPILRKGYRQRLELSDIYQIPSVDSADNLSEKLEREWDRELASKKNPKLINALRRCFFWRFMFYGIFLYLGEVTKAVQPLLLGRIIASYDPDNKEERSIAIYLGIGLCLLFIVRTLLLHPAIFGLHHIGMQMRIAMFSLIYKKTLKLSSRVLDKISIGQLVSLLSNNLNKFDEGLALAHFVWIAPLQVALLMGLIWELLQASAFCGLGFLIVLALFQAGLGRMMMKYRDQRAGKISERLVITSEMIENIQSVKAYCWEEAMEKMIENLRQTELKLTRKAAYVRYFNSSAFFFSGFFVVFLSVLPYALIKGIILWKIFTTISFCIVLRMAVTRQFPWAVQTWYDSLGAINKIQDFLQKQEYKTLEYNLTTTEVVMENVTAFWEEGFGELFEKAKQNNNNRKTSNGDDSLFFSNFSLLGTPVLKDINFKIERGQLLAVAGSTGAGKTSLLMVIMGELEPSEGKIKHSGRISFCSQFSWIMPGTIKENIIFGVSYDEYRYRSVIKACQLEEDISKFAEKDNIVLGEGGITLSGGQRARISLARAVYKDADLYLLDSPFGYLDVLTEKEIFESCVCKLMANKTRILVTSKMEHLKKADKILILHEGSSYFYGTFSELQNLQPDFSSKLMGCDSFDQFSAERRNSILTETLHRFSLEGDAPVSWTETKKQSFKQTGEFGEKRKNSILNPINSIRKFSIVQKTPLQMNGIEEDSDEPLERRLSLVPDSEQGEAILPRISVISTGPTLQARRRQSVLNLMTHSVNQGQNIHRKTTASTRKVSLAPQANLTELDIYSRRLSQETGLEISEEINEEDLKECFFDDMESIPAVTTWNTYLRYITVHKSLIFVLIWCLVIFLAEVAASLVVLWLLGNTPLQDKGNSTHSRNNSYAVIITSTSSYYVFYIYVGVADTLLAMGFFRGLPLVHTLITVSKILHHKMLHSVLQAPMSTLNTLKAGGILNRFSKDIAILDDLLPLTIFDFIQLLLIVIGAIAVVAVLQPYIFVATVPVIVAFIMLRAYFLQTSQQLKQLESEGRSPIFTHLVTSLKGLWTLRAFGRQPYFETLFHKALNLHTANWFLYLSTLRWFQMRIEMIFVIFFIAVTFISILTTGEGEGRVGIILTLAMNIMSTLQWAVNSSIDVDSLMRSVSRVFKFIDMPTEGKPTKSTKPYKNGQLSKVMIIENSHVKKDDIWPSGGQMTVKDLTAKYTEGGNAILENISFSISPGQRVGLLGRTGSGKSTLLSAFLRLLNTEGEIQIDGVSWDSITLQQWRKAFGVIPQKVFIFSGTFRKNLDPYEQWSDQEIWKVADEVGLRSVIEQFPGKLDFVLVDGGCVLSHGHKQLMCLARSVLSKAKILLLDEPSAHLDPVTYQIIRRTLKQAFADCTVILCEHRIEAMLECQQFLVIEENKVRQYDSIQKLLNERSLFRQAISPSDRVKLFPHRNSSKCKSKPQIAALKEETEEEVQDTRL
T4 sequence (P13569 whole entry G1349D): as the sequence (P13569 whole entry R334W) above, with W334R, G1349D counted along it
T2 sequence (P13569 whole entry G551D): as the sequence (P13569 whole entry R334W) above, with W334R, G551D counted along it
T3 sequence (P13569 whole entry S945L): as the sequence (P13569 whole entry R334W) above, with W334R, S945L counted along it

With CCOC(=O)c1ccc(-n2cc(C(O)c3ccc(Br)cc3)nn2)cc1 (stereo not drawn) [LSO-150] the “Isceq, co-administration with VX-770” value (p.Arg334Trp-CFTR; VX-770 3 μM + LSO-150 3 μM or LSO-153 5 μM, vs single potentiator) was “further response”, the “Isceq (equivalent short-circuit current), single potentiator” value (p.Arg334Trp-CFTR; acute, LSO-150 3 μM, LSO-153 5 μM, VX-770 3 μM, vs DMSO) was “increase in Isceq” and the “CFTR activity (fluorescence quenching rate), single compound” value (p.Gly551Asp-CFTR) was “increased CFTR activity”. For the same compound, the “CFTR activity (fluorescence quenching rate), single compound” value (p.Ser945Leu-CFTR) was “increased CFTR activity”, the “Fluorescence quenching rate, effect in combination(s) with VX-770 or ABBV-3067” value (p.Gly1349Asp-CFTR; LSO-24 5 μM or LSO-150 3 μM added to VX-770 1 μM or ABBV-3067 10 μM) was “no effect” and the “Fluorescence quenching rate, single compound” value (p.Gly1349Asp-CFTR; LSO-24 5 μM, LSO-150 3 μM, VX-770 1 μM, ABBV-3067 10 μM) was “no effect”.
